In US10442807B2, “Aryl substituted bicyclic compounds as herbicides” (FMC Corporation, priority 2015, dated 2019):

Key:
Format in all cases: in vivo
[1] = test system: barnyardgrass (Echinochloa crus-galli); experiment: Test A preemergence, directed soil spray, visual injury rating; settings: approx. 10 d, 0 = no effect, 100 = complete control
Excerpt: (§1) Seeds of plant species selected from barnyardgrass (Echinochloa crus-galli), kochia (Kochia scoparia), ragweed (common ragweed, Ambrosia elation), ryegrass, Italian (Italian ryegrass, Lolium multiflorum), foxtail, giant (giant foxtail, Setaria faberii), and pigweed (Amaranthus retroflexus), were planted into a blend of loam soil and sand and treated preemergence with a directed soil spray using test chemicals formulated in a non-phytotoxic solvent mixture which included a surfactant. At the same time, plants selected from these weed species and also blackgrass (Alopecurus myosuroides), galium (catchweed bedstraw, Galium aparine), wheat (Triticum aestivum), and corn (Zea mays) were planted in pots containing the same blend of loam soil and sand and treated with postemergence applications of test chemicals formulated in the same manner. Plants ranged in height from 2 to 10 cm and were in the one- to two-leaf stage for the postemergence treatment. Treated plants and untreated controls were maintained in a greenhouse for approximately 10 d, after which time all treated plants were compared to untreated controls and visually evaluated for injury. Plant response ratings, summarized in Table A, are based on a 0 to 100 scale where 0 is no effect and 100 is complete control. A dash (-) response means no test result.

[2] = test system: foxtail, giant (giant foxtail, Setaria faberii); experiment: as above; settings: approx. 10 d, 0 = no effect, 100 = complete control
Excerpt: as §1

kochia (Kochia scoparia) [3] = experiment: as above; settings: approx. 10 d, 0 = no effect, 100 = complete control
Excerpt: as §1

[4] = test system: pigweed (Amaranthus retroflexus); experiment: as above; settings: approx. 10 d, 0 = no effect, 100 = complete control
Excerpt: as §1

[5] = test system: ragweed (common ragweed, Ambrosia elation); experiment: as above; settings: approx. 10 d, 0 = no effect, 100 = complete control
Excerpt: as §1

[6] = test system: ryegrass, Italian (Italian ryegrass, Lolium multiflorum); experiment: as above; settings: approx. 10 d, 0 = no effect, 100 = complete control
Excerpt: as §1

[7] = test system: barnyardgrass (Echinochloa crus-galli); experiment: Test A postemergence application, visual injury rating; settings: approx. 10 d, 0 = no effect, 100 = complete control
Excerpt: as §1

[8] = test system: blackgrass (Alopecurus myosuroides); experiment: as above; settings: approx. 10 d, 0 = no effect, 100 = complete control
Excerpt: as §1

corn (Zea mays) = experiment: as above; settings: approx. 10 d, 0 = no effect, 100 = complete control
Excerpt: as §1

[9] = test system: foxtail, giant (giant foxtail, Setaria faberii); experiment: as above; settings: approx. 10 d, 0 = no effect, 100 = complete control
Excerpt: as §1

[10] = test system: galium (catchweed bedstraw, Galium aparine); experiment: as above; settings: approx. 10 d, 0 = no effect, 100 = complete control
Excerpt: as §1

kochia (Kochia scoparia) [11] = experiment: as above; settings: approx. 10 d, 0 = no effect, 100 = complete control
Excerpt: as §1

[12] = test system: pigweed (Amaranthus retroflexus); experiment: as above; settings: approx. 10 d, 0 = no effect, 100 = complete control
Excerpt: as §1

[13] = test system: ragweed (common ragweed, Ambrosia elation); experiment: as above; settings: approx. 10 d, 0 = no effect, 100 = complete control
Excerpt: as §1

[14] = test system: ryegrass, Italian (Italian ryegrass, Lolium multiflorum); experiment: as above; settings: approx. 10 d, 0 = no effect, 100 = complete control
Excerpt: as §1

[15] = test system: wheat (Triticum aestivum); experiment: as above; settings: approx. 10 d, 0 = no effect, 100 = complete control
Excerpt: as §1

[16] = test system: barnyardgrass (Echinochloa crus-galli); experiment: Test B flooded paddy test, visual plant response rating; settings: applied to paddy water at 2-leaf stage, rated after 13 to 15 days, scale 0 to 100, 0 is no effect, 100 is complete control
Excerpt: (§2) At time of treatment, test pots were flooded to 3 cm above the soil surface, treated by application of test compounds directly to the paddy water, and then maintained at that water depth for the duration of the test. Treated plants and controls were maintained in a greenhouse for 13 to 15 days, after which time all species were compared to controls and visually evaluated. Plant response ratings, summarized in Table B, are based on a scale of 0 to 100 where 0 is no effect and 100 is complete control. A dash (-) response means no test result.

[17] = test system: ducksalad (Heteranthera limosa); experiment: as above; settings: applied to paddy water at 2-leaf stage, rated after 13 to 15 days, scale 0 to 100, 0 is no effect, 100 is complete control
Excerpt: as §2

rice (Oryza sativa) = experiment: as above; settings: applied to paddy water at 2-leaf stage, rated after 13 to 15 days, scale 0 to 100, 0 is no effect, 100 is complete control
Excerpt: as §2

[18] = test system: sedge, umbrella (small-flower umbrella sedge, Cyperus difformis); experiment: as above; settings: applied to paddy water at 2-leaf stage, rated after 13 to 15 days, scale 0 to 100, 0 is no effect, 100 is complete control
Excerpt: as §2

Compound | Barnyardgrass plant response rating (0 to 100 scale) ([1]; 125 g ai/ha) | Barnyardgrass plant response rating (0 to 100 scale) ([1]; 500 g ai/ha) | Foxtail, Giant plant response rating (0 to 100 scale) ([2]; 125 g ai/ha) | Foxtail, Giant plant response rating (0 to 100 scale) ([2]; 500 g ai/ha) | Kochia plant response rating (0 to 100 scale) (kochia (Kochia scoparia) [3]; 125 g ai/ha) | Kochia plant response rating (0 to 100 scale) (kochia (Kochia scoparia) [3]; 500 g ai/ha) | Pigweed plant response rating (0 to 100 scale) ([4]; 125 g ai/ha) | Pigweed plant response rating (0 to 100 scale) ([4]; 500 g ai/ha) | Ragweed plant response rating (0 to 100 scale) ([5]; 125 g ai/ha) | Ragweed plant response rating (0 to 100 scale) ([5]; 500 g ai/ha) | Ryegrass, Italian plant response rating (0 to 100 scale) ([6]; 125 g ai/ha) | Ryegrass, Italian plant response rating (0 to 100 scale) ([6]; 500 g ai/ha) | Barnyardgrass plant response rating (0 to 100 scale) ([7]; 125 g ai/ha) | Barnyardgrass plant response rating (0 to 100 scale) ([7]; 500 g ai/ha) | Blackgrass plant response rating (0 to 100 scale) ([8]; 125 g ai/ha) | Blackgrass plant response rating (0 to 100 scale) ([8]; 500 g ai/ha) | Corn plant response rating (0 to 100 scale) (corn (Zea mays); 125 g ai/ha) | Corn plant response rating (0 to 100 scale) (corn (Zea mays); 500 g ai/ha) | Foxtail, Giant plant response rating (0 to 100 scale) ([9]; 125 g ai/ha) | Foxtail, Giant plant response rating (0 to 100 scale) ([9]; 500 g ai/ha) | other results
O=C(Nc1ccccc1F)C1c2nccn2CC1c1cccc(C(F)(F)F)c1 (stereo not drawn) [Compound 4] | 20 | 90 | 60 | 90 | 0 | 0 | 0 | 0 | 0 | 0 | 0 | 0 | 20 | 60 | 20 | 40 | 0 | 0 | 20 | 70 | Galium plant response rating (0 to 100 scale) ([10]; 125 g ai/ha): 0; Galium plant response rating (0 to 100 scale) ([10]; 500 g ai/ha): 0; Kochia plant response rating (0 to 100 scale) (kochia (Kochia scoparia) [11]; 125 g ai/ha): 0; Kochia plant response rating (0 to 100 scale) (kochia (Kochia scoparia) [11]; 500 g ai/ha): 0; Pigweed plant response rating (0 to 100 scale) ([12]; 125 g ai/ha): 0; Pigweed plant response rating (0 to 100 scale) ([12]; 500 g ai/ha): 0; Ragweed plant response rating (0 to 100 scale) ([13]; 125 g ai/ha): 0; Ragweed plant response rating (0 to 100 scale) ([13]; 500 g ai/ha): 0; Ryegrass, Italian plant response rating (0 to 100 scale) ([14]; 125 g ai/ha): 0; Ryegrass, Italian plant response rating (0 to 100 scale) ([14]; 500 g ai/ha): 0; Wheat plant response rating (0 to 100 scale) ([15]; 125 g ai/ha): 0; Wheat plant response rating (0 to 100 scale) ([15]; 500 g ai/ha): 20; Plant response rating, Flood, Barnyardgrass ([16]; 500 g ai/ha): 0; Plant response rating, Flood, Ducksalad ([17]; 500 g ai/ha): 0; Plant response rating, Flood, Rice (rice (Oryza sativa); 500 g ai/ha): 0; Plant response rating, Flood, Sedge, Umbrella ([18]; 500 g ai/ha): 0
Cc1nnc2n1CC(c1ccc(Cl)cc1)C2C(=O)Nc1cccc(F)c1F (stereo not drawn) [Compound 5] | 30 | 80 | 50 | 90 | 0 | 50 | 0 | 0 | 0 | 40 | 20 | 30 | 20 | 80 | 0 | 20 | 20 | 30 | 30 | 80 | Galium plant response rating (0 to 100 scale) ([10]; 125 g ai/ha): 40; Galium plant response rating (0 to 100 scale) ([10]; 500 g ai/ha): 70; Kochia plant response rating (0 to 100 scale) (kochia (Kochia scoparia) [11]; 125 g ai/ha): 0; Kochia plant response rating (0 to 100 scale) (kochia (Kochia scoparia) [11]; 500 g ai/ha): 30; Pigweed plant response rating (0 to 100 scale) ([12]; 125 g ai/ha): 0; Pigweed plant response rating (0 to 100 scale) ([12]; 500 g ai/ha): 20; Ragweed plant response rating (0 to 100 scale) ([13]; 125 g ai/ha): 0; Ragweed plant response rating (0 to 100 scale) ([13]; 500 g ai/ha): 20; Ryegrass, Italian plant response rating (0 to 100 scale) ([14]; 125 g ai/ha): 0; Ryegrass, Italian plant response rating (0 to 100 scale) ([14]; 500 g ai/ha): 20; Wheat plant response rating (0 to 100 scale) ([15]; 125 g ai/ha): 0; Wheat plant response rating (0 to 100 scale) ([15]; 500 g ai/ha): 20; Plant response rating, Flood, Barnyardgrass ([16]; 250 g ai/ha): 40; Plant response rating, Flood, Ducksalad ([17]; 250 g ai/ha): 20; Plant response rating, Flood, Rice (rice (Oryza sativa); 250 g ai/ha): 0; Plant response rating, Flood, Sedge, Umbrella ([18]; 250 g ai/ha): 0
Cc1nnc2n1CC(c1ccc(C(F)(F)F)cc1)C2C(=O)Nc1ccccc1C(F)(F)F (stereo not drawn) [Compound 6] | 0 | 40 | 0 | 90 | 0 | 0 | 0 | 40 | 0 | 0 | 40 | 60 | 0 | 40 | 0 | 20 | 0 | 0 | 0 | 30 | Galium plant response rating (0 to 100 scale) ([10]; 125 g ai/ha): 0; Galium plant response rating (0 to 100 scale) ([10]; 500 g ai/ha): 30; Kochia plant response rating (0 to 100 scale) (kochia (Kochia scoparia) [11]; 125 g ai/ha): 0; Kochia plant response rating (0 to 100 scale) (kochia (Kochia scoparia) [11]; 500 g ai/ha): 0; Pigweed plant response rating (0 to 100 scale) ([12]; 125 g ai/ha): 0; Pigweed plant response rating (0 to 100 scale) ([12]; 500 g ai/ha): 0; Ragweed plant response rating (0 to 100 scale) ([13]; 125 g ai/ha): 0; Ragweed plant response rating (0 to 100 scale) ([13]; 500 g ai/ha): 0; Ryegrass, Italian plant response rating (0 to 100 scale) ([14]; 125 g ai/ha): 0; Ryegrass, Italian plant response rating (0 to 100 scale) ([14]; 500 g ai/ha): 20; Wheat plant response rating (0 to 100 scale) ([15]; 125 g ai/ha): 0; Wheat plant response rating (0 to 100 scale) ([15]; 500 g ai/ha): 0; Plant response rating, Flood, Barnyardgrass ([16]; 250 g ai/ha): 0; Plant response rating, Flood, Ducksalad ([17]; 250 g ai/ha): 0; Plant response rating, Flood, Rice (rice (Oryza sativa); 250 g ai/ha): 0; Plant response rating, Flood, Sedge, Umbrella ([18]; 250 g ai/ha): 0
